In patent US10017492B2 (KANGPU BIOPHARMACEUTICALS, LTD., priority 2014, dated 2018):

Assays:
TNF-α = TNF-α activity inhibiting assay (LPS-stimulated peripheral blood, ELISA); assay type: cell-based, human; details: Homo sapiens, compound 100 nM, diluted peripheral blood of healthy volunteers, LPS 10 ng/mL, 6 hours, read-out: Inhibitory Rate on TNF-α (%)
Method: TNF-α Activity Inhibiting Assay
Peripheral blood from healthy volunteers was collected and collected with EDTA anticoagulant tubes. After being diluted 5-fold with 1640 medium (Gibco, catalog number 11875-093, USA), the blood was added to 96-well cell culture plates (Costar, catalog number 3599, USA) and then treated with 10 μL solution of the compound of general formula (I) of the present invention in DMSO (Sigma, catalog number D2650, USA). The final concentration of the compound was 100 nM, and the final concentration of DMSO was 0.2%. After incubation for 60 minutes in an incubator at 37° C. under 5% CO2, 10 μL LPS (Sigma, catalog number L-2880, USA) was added to the reaction system, and the final concentration was 10 ng/mL. After further culturing for 6 hours in the incubator at 37° C. under 5% CO2, the supernatant was collected. The content of TNF-α was determined by ELISA (BD Biosciences, catalog number 555212, USA). Absorbance was detected at OD450 nm with a microplate reader, with OD 650 nm as reference. The control, a solution containing 0.2% DMSO medium, was as 0% inhibition. Raw data and standard curves were recorded. The four-parameter drug inhibition curve was plotted by XL-fit software and the inhibition rate of each compound was calculated, as shown in Table 1.

[1] = test system: MM.1S cells (myeloma cells); assay: Cell proliferation assay (MTS), MM.1S myeloma cells; assay type: cell-based; details: Homo sapiens, MM1.S, 72 hours, read-out: IC50 values of MMIS Inhibition
Method: MM.1S cells (myeloma cells) (ATCC, catalog number CRL-2974) were seeded at 1.8×10^3 per well to a 96-well culture plate containing […] (Gibco, catalog number A10491-01), and were incubated in an incubator for 24 hours at 37° C. under 5% CO2. Compounds were prepared as 20 mM stock solutions with DMSO (Sigma, catalog number D2650), and were diluted with the medium to the desired concentration (the final concentration of DMSO was 0.5%) and then were added to each well, incubated in an incubator for 72 hours at 37° C. under 5% CO2. Then, 20 μL MTS (Promega, catalog number G3581) was added to each well, and further incubated for 1-4 hours in an incubator at 37° C. under 5% CO2. OD490 nm was detected with OD650 nm as reference. The control, a solution containing 0.5% DMSO medium, was as 0% inhibition. GraphPad Prism 5 was used, slope was allowed to change to make the dose-effect curve and IC50 values were calculated, shown in table 2 for details.

Compound	inhibition at 0.1 µM (TNF-α)	IC50 [1]
[2H]C1(N2Cc3c(N)cc(F)cc3C2=O)CCC(=O)NC1=O (racemic) [Compound I-01]	> 50%	–
COc1cccc(CNc2cccc3c2CN(C2CCC(=O)NC2=O)C3=O)c1F (stereo not shown) [Compound A196, 3-(4-((2-fluoro-3-methoxybenzyl)amino)-1-oxoisoindolin-2-yl)piperidine-2,6-dione]	≥ 50%	< 300 nM
COc1cccc(CNc2cc(F)cc3c2CN(C2CCC(=O)NC2=O)C3=O)c1F (stereo not shown) [Compound A318, 3-(6-fluoro-4-((2-fluoro-3-methoxybenzyl)amino)-1-oxoisoindolin-2-yl)-piperidine-2,6-dione]	< 50%	≥ 300 nM
COc1ccc(CNc2cc(F)cc3c2CN(C2CCC(=O)NC2=O)C3=O)c(F)c1 (stereo not shown) [Compound A319, 3-(6-fluoro-4-((2-fluoro-4-methoxybenzyl)amino)-1-oxoisoindolin-2-yl)-piperidine-2,6-dione]	< 50%	≥ 300 nM
COc1ccc(F)c(CNc2cc(F)cc3c2CN(C2CCC(=O)NC2=O)C3=O)c1 (stereo not shown) [Compound A320, 3-(6-fluoro-4-((2-fluoro-5-methoxybenzyl)amino)-1-oxoisoindolin-2-yl)-piperidine-2,6-dione]	< 50%	≥ 300 nM
O=C1CCC(N2Cc3c(OCc4ccc(CN5CCOCC5)cc4)cc(F)cc3C2=O)C(=O)N1 (stereo not shown) [Compound A327, 3-(6-fluoro-4-((4-(morpholinomethyl)benzyl)oxy)-1-oxoisoindolin-2-yl)-piperidine-2,6-dione]	< 50%	< 300 nM
COc1ccc(F)c(COc2cccc3c2CN(C2CCC(=O)NC2=O)C3=O)c1 (stereo not shown) [Compound A331, 3-(4-((2-fluoro-5-methoxybenzyl)oxy)-1-oxoisoindolin-2-yl)piperidine-2,6-dione]	≥ 50%	< 300 nM
O=C1CCC(N2Cc3c(OCc4ccccc4F)cccc3C2=O)C(=O)N1 (stereo not shown) [Compound A336, 3-[4-(2-Fluoro-benzyloxy)-1-oxo-1,3-dihydro-isoindol-2-yl]-piperidine-2,6-dione]	–	< 300 nM
COc1ccc(F)c(CNc2cccc3c2CN([C@H]2CCC(=O)NC2=O)C3=O)c1 [Compound A340, (S)-3-(4-((2-fluoro-5-methoxybenzyl)amino)-1-oxoisoindolin-2-yl)piperidine-2,6-dione]	< 50%	< 300 nM
COc1ccc(F)c(CNc2cccc3c2CN([C@@H]2CCC(=O)NC2=O)C3=O)c1 [Compound A341, (R)-3-(4-((2-fluoro-5-methoxybenzyl)amino)-1-oxoisoindolin-2-yl)piperidine-2,6-dione]	< 50%	< 300 nM
[2H][C@@]1(N2Cc3c(NCc4cc(OC)ccc4F)cccc3C2=O)CCC(=O)NC1=O [Compound A342, (R)-3-deuterium-3-(4-((2-fluoro-5-methoxybenzyl)amino)-1-oxoisoindolin-2-yl)piperidine-2,6-dione]	< 50%	≥ 300 nM
[2H][C@]1(N2Cc3c(NCc4cc(OC)ccc4F)cccc3C2=O)CCC(=O)NC1=O [Compound A343, (S)-3-deuterium-3-(4-((2-fluoro-5-methoxybenzyl)amino)-1-oxoisoindolin-2-yl)piperidine-2,6-dione]	≥ 50%	< 300 nM
O=C1CC[C@H](N2Cc3c(NCc4ccc(CN5CCOCC5)cc4)cccc3C2=O)C(=O)N1 [Compound A346, (S)-3-(4-((4-(morpholinomethyl)benzyl)amino)-1-oxoisoindolin-2-yl) piperidine-2,6-dione]	≥ 50%	< 300 nM
COc1ccc(CNc2cccc3c2CN(C2CCC(=O)NC2=O)C3=O)cc1OC (stereo not shown) [Compound A349, 3-(4-((3,4-dimethoxybenzyl)amino)-1-oxoisoindolin-2-yl)piperidine-2,6-dione]	< 50%	≥ 300 nM
Cc1ccc(CNc2cccc3c2CN(C2CCC(=O)NC2=O)C3=O)cc1C (stereo not shown) [Compound A350, 3-(4-((3,4-dimethylbenzyl)amino)-1-oxoisoindolin-2-yl)piperidine-2,6-dione]	< 50%	< 300 nM
Cc1cc(CNc2cccc3c2CN(C2CCC(=O)NC2=O)C3=O)ccc1F (stereo not shown) [Compound A351, 3-(4-((4-fluoro-3-methylbenzyl)amino)-1-oxoisoindolin-2-yl)piperidine-2,6-dione]	< 50%	< 300 nM
Cc1ccc(CNc2cccc3c2CN(C2CCC(=O)NC2=O)C3=O)cc1Cl (stereo not shown) [Compound A352, 3-(4-((3-chloro-4-methylbenzyl)amino)-1-oxoisoindolin-2-yl)piperidine-2,6-dione]	< 50%	< 300 nM
Cc1ccc(CNc2cccc3c2CN(C2CCC(=O)NC2=O)C3=O)cc1F (stereo not shown) [Compound A353, 3-(4-((3-fluoro-4-methylbenzyl)amino)-1-oxoisoindolin-2-yl)piperidine-2,6-dione]	< 50%	< 300 nM
COc1ccc(CNc2cccc3c2CN(C2CCC(=O)NC2=O)C3=O)cc1Cl (stereo not shown) [Compound A354, 3-(4-((3-chloro-4-methoxybenzyl)amino)-1-oxoisoindolin-2-yl)piperidine-2,6-dione]	< 50%	< 300 nM
COc1cc(CNc2cccc3c2CN(C2CCC(=O)NC2=O)C3=O)cc(OC)c1 (stereo not shown) [Compound A355, 3-(4-((3,5-dimethoxybenzyl)amino)-1-oxoisoindolin-2-yl)piperidine-2,6-dione]	< 50%	≥ 300 nM
O=C1CCC(N2Cc3c(NCc4cccc(O)c4F)cccc3C2=O)C(=O)N1 (stereo not shown) [Compound A359, 3-(4-((2-fluoro-3-hydroxybenzyl)amino)-1-oxoisoindolin-2-yl)piperidine-2,6-dione]	≥ 50%	< 300 nM
N#Cc1cccc(CNc2cccc3c2CN(C2CCC(=O)NC2=O)C3=O)c1F (stereo not shown) [Compound A360, 3-(((2-(2,6-dioxopiperidin-3-yl)-1-oxoisoindolin-4-yl)amino)methyl)-2-fluorobenzonitrile]	< 50%	< 300 nM
NC(=O)c1cccc(CNc2cccc3c2CN(C2CCC(=O)NC2=O)C3=O)c1F (stereo not shown) [Compound A361, 3-(((2-(2,6-Dioxopiperidin-3-yl)-1-oxoisoindolin-4-yl)amino)methyl)-2-fluorobenzamide]	≥ 50%	< 300 nM
CNC(=O)c1cccc(CNc2cccc3c2CN(C2CCC(=O)NC2=O)C3=O)c1F (stereo not shown) [Compound A362, 3-(((2-(2,6-Dioxopiperidin-3-yl)-1-oxoisoindolin-4-yl)amino)methyl)-2-fluoro-N-methylbenzamide]	< 50%	≥ 300 nM
CN(C)CCOc1ccc(F)c(CNc2cccc3c2CN(C2CCC(=O)NC2=O)C3=O)c1 (stereo not shown) [Compound A363, 3-(4-((5-(2-(Dimethylamino)ethoxy)-2-fluorobenzyl)amino)-1-oxoisoindolin-2-yl)piperidine-2,6-dione]	< 50%	≥ 300 nM
O=C1CCC(N2Cc3c(NCc4cc(O)ccc4F)cccc3C2=O)C(=O)N1 (stereo not shown) [Compound A364, 3-(4-((2-fluoro-5-hydroxybenzyl)amino)-1-oxoisoindolin-2-yl)piperidine-2,6-dione]	< 50%	< 300 nM
Cc1cccc(CNc2cccc3c2CN(C2CCC(=O)NC2=O)C3=O)c1F (stereo not shown) [Compound A367, 3-(4-((2-fluoro-3-methylbenzyl)amino)-1-oxoisoindolin-2-yl)piperidine-2,6-dione]	≥ 50%	< 300 nM
O=C1CCC(N2Cc3c(NCc4cc(OCCN5CCOCC5)ccc4F)cccc3C2=O)C(=O)N1 (stereo not shown) [Compound A368, 3-(4-((2-fluoro-5-(2-morpholinoethoxy)benzyl)amino)-1-oxoisoindolin-2-yl)piperidine-2,6-dione]	≥ 50%	< 300 nM
O=C1CCC(N2Cc3c(NCc4cc(OCCCN5CCOCC5)ccc4F)cccc3C2=O)C(=O)N1 (stereo not shown) [Compound A369, 3-(4-((2-fluoro-5-(3-morpholinopropoxy)benzyl)amino)-1-oxoisoindolin-2-yl)piperidine-2,6-dione]	≥ 50%	< 300 nM
COCCOc1ccc(F)c(CNc2cccc3c2CN(C2CCC(=O)NC2=O)C3=O)c1 (stereo not shown) [Compound A370, 3-(4-((2-fluoro-5-(2-methoxyethoxy)benzyl)amino)-1-oxoisoindolin-2-yl)piperidine-2,6-dione]	< 50%	≥ 300 nM
